Experimental findings from patent US11780868B1, “Homoleptic metal coordination complexes as antifungal agents” (King Abdulaziz University, priority 2023, dated 2023) are described below.

Structures are written as SMILES. In brackets after ≈: the same amount, converted by molar mass.

Data set [1] concerns C. albicans 4251. Briefly: Cell count and viability assay (Muse cell analyser). It counts as cell-based, Candida albicans. The conditions noted are these: C. albicans 4251, hydrogen peroxide 10 mM 1:1 with inoculum, 24 h; untreated 90.9%. The protocol:
(§1) Quantification of Live/Dead C. albicans cells in response to C1 was carried out. The actual count of viable and dead cells of C. albicans by treatment of C1 was monitored by Cell Count and Viability assay kit. An inoculum (1×10^6 cells/mL) of both Flz sensitive (C. albicans 4251) and resistant (C. albicans 5112) C. albicans strains was prepared followed by treatment with various concentrations of C1 (0.5×MIC, 1×MIC and MFC) for 24 h at 37° C. and 150 rpm. For the negative control, only inoculum treated with 1% DMSO was used and for the positive control, hydrogen peroxide (10 mM) was used in a 1:1 ratio with the inoculum. Following incubation, the cells were then washed in PBS and centrifuged at 4000 rpm for 5 minutes at 4° C. and the final pellet was resuspended in PBS. The Cell Count and Viability assay samples were prepared by mixing 190 μL of Luminex Cell Viability Dilution Buffer and 10 μL of the sample in a 1.5 mL Eppendorf tube and incubated in the dark for 5 min at room temperature. All samples were analysed by a Guava® Muse® Cell Analyser (Luminex A DiaSorin Company, USA).

Data set [2] relates to C. albicans 5112. Described as above. In kind it is cell-based, Candida albicans. The conditions noted are these: C. albicans 5112, hydrogen peroxide 10 mM 1:1 with inoculum, 24 h; untreated 86.8%. As to the method: as §1
Data set [3] has as its system C. albicans 4251. Nature of the data set: JC-10 mitochondrial membrane potential assay. In kind it is cell-based, Candida albicans. The conditions noted are these: C. albicans 4251, H2O2 treated positive control; negative control 2.65. As to the method: (§2) To examine the effect of C1 on the induction of cellular apoptosis in C. albicans cells, crucial apoptotic markers were observed. For this purpose, C. albicans 4251 and C. albicans 5112 cells were subjected to protoplast preparation by utilizing a method described previously by Srivastava et al. in 2020 through their research study. […] Later on, the cells were washed and incubated for 10 min at room temperature in protoplast buffer-1 (1M sorbitol, 0.05M tris base, 0.01M MgCl2, 0.03M DTT, pH 7.4). The cells were spun at 1500 rpm for 5 min and the pellet was resuspended in protoplast buffer-2 (1M sorbitol, 0.05M tris base, 0.01M MgCl2, 0.001M DTT, pH 7.4) supplemented with […] enzyme (1 μg/mL) and incubated for 1 h at room temperature. Afterwards, the cell suspension was again centrifuged, and the pellet was resuspended and incubated for 20 min at room temperature in protoplast buffer-3 (1M sorbitol, 0.05M tris base, 0.01M MgCl2, pH 7.4). A final washing (1500 rpm for 5 min) was given to the cells and the pellet consisting of C. albicans protoplasts was resuspended in fresh PBS and was stored at 4° C. until further use. Measurement of mitochondrial membrane potential in C. albicans was carried out and the potential of C1 in destabilising mitochondrial membrane potential (Δψm) in C. albicans was established by JC-10 mitochondrial membrane potential assay kit (Abeam, Cambridge, UK). The experiment was performed according to manufacturer instructions. 90 μL of prepared protoplast of C. albicans 4251 and C. albicans 5112 was added to a 96-well microplate (with black walls and clear bottom), followed by the addition of 50 μL/well of JC-10 dye-loading solution. The microplate was incubated for 1 hour at 37° C. in the dark. This was followed by the addition of 50 μL/well of assay buffer B. The microplate was then immediately centrifuged at 800 rpm for 2 minutes. The fluorescence intensity was monitored at an Ex/Em=490/530 nm (present in apoptotic cells, monomeric form and green fluorescence; represented as X) and 540/590 nm (present in live cells, dye aggregates and red fluorescence; represented as Y) using a SpectraMax® ID3 Multimode Plate Reader (Molecular Devices, LLC., USA). The ratio between the aggregate and monomeric forms was measured to find the change in mitochondrial membrane potential. The mitochondrial membrane depolarization is indicated by decreasing ratio values.

Data set [4] concerns C. albicans 5112. Briefly: JC-10 mitochondrial membrane potential assay. In kind it is cell-based, Candida albicans. The conditions noted are these: C. albicans 5112, H2O2 treated positive control; negative control 2.92. As to the method:
as §2

Data set [5] relates to C. albicans 4251. Briefly: Cell cycle analysis (Muse cell analyser). It counts as cell-based, Candida albicans. The conditions noted are these: 10 mM H2O2 positive control; stated for C. albicans without naming a strain. As to the method: The effect of C1 on the cell cycle of C. albicans 4251 and C. albicans 5112 was determined using Cell Cycle kit MCH100106 in a Guava® Muse® Cell Analyser according to the manufacturer's instructions. The cells of the C. albicans (1×10^6 cells/mL) were exposed to C1 for 4 h at different concentrations (0.5×MIC and 1×MIC). Each sample was rinsed with fresh PBS after exposure, and the pellet was fixed in 1 mL of 70% ice-cold ethanol (Sigma Aldrich Co., USA). The Cell Cycle assay was prepared by mixing the 100 μL of Luminex® Cell Cycle dye and 100 μL of the prewashed fixed cells and incubated in the dark for 30 minutes at room temperature. All samples were analysed by a Guava® Muse® Cell Analyser (Luminex® A DiaSorin Company, USA). During the experiment, both the negative (without treatment) and positive control (10 mM H2O2 treated) were used.

The next data set relates to C. albicans 4085. Briefly: Broth microdilution MIC/MFC (CLSI M27-A4). It counts as cell-based, Candida albicans. The conditions noted are these: Candida albicans; C. albicans 4085 (Flz resistant), 37° C., 24 h; read-out: Median MIC. As to the method: (§3) In this work, nine strains of C. albicans procured from Charlotte Maxeke Johannesburg Academic Hospital under ethical clearance number M000402 were employed (Table 1). All the C. albicans strains were preserved at −70° C. deep freezer in 50% (v/v) anhydrous glycerol (Sigma-Aldrich St. Louis, MO, U.S.A.). For conducting experiments, cultures were revived in Sabouraud Dextrose broth (SDB; Merck, Germany) at 37° C. and 120 rpm for 24 h. Additionally, the RPMI 1640 medium and MOPS (Sigma-Aldrich, USA) were prepared as described by the Clinical and Laboratory Standards Institute (CLSI).
(§4) The activity of C1 against Candida species (n=9) was first estimated in terms of minimum inhibitory concentration (MIC) and minimum fungicidal concentration (MFC). […] Briefly, stock solutions of Flz (used as reference; Sigma-Aldrich St. Louis, MO, U.S.A.) and the synthesized compound was prepared in 1% dimethyl sulfoxide (DMSO; Sigma-Aldrich St. Louis, MO, U.S.A.) and the test concentrations were formulated in RPMI 1640-MOPS medium. A two-fold dilution of the compound (1250-0.61 μg/mL) and reference drug (128-0.062 μg/mL) was prepared in 96 well plates which were then seeded with C. albicans inoculum (1×10^6 cells/mL) and incubated at 37° C. for 24 h. In every set of experiments, sterility control, 1% DMSO as negative control and growth control were included. Growth was quantified by reading the optical density at 620 nm in a UV-1800 SHIMADZU spectrophotometer (Shimadzu Corporation, Japan). The MIC was determined as the lowest concentration that inhibited the growth of Candida strains. To determine MFC, each well without visible growth was subcultured onto the SDA plates for 24 hours at 37° C. The lowest concentration killing ≥99.9% of Candida was taken as the MFC value of the test compound.

The test system of the next data set is C. albicans 4106. Nature of the data set: Broth microdilution MIC/MFC (CLSI M27-A4). In kind it is cell-based, Candida albicans. The conditions noted are these: Candida albicans; C. albicans 4106 (Flz resistant), 37° C., 24 h; read-out: Median MIC. The protocol: as §3, §4
(In general: In broth dilution the organism is exposed to a series of concentrations in liquid medium.)

A further data set deals with C. albicans 4175. Nature of the data set: Broth microdilution MIC/MFC (CLSI M27-A4). In kind it is cell-based, Candida albicans. The conditions noted are these: Candida albicans; C. albicans 4175 (Flz sensitive), 37° C., 24 h; read-out: Median MIC. As to the method: as §3, §4
In the next data set the test system is C. albicans 4180. Briefly: Broth microdilution MIC/MFC (CLSI M27-A4). It counts as cell-based, Candida albicans. The conditions noted are these: Candida albicans; C. albicans 4180 (Flz sensitive), 37° C., 24 h; read-out: Median MIC. The protocol: as §3, §4
Data set [6] relates to C. albicans 4251. Nature of the data set: Broth microdilution MIC/MFC (CLSI M27-A4). The conditions noted are these: Candida albicans; C. albicans 4251 (Flz sensitive), 37° C., 24 h; read-out: Median MIC. It counts as cell-based, Candida albicans. As to the method:
as §3, §4

The test system of a further data set is C. albicans 4324. Nature of the data set: Broth microdilution MIC/MFC (CLSI M27-A4). In kind it is cell-based, Candida albicans. The conditions noted are these: Candida albicans; C. albicans 4324 (Flz resistant), 37° C., 24 h; read-out: Median MIC. The protocol:
as §3, §4

The next data set deals with C. albicans 4554. Briefly: Broth microdilution MIC/MFC (CLSI M27-A4). It counts as cell-based, Candida albicans. The conditions noted are these: Candida albicans; C. albicans 4554 (Flz sensitive), 37° C., 24 h; read-out: Median MIC. The protocol:
as §3, §4

Data set [7] relates to C. albicans 5112. Briefly: Broth microdilution MIC/MFC (CLSI M27-A4). In kind it is cell-based, Candida albicans. The conditions noted are these: Candida albicans; C. albicans 5112 (Flz resistant), 37° C., 24 h; read-out: Median MIC. As to the method:
as §3, §4

For a further data set, the system named is C. albicans SC5314. Nature of the data set: Broth microdilution MIC/MFC (CLSI M27-A4). It counts as cell-based, Candida albicans. The conditions noted are these: Candida albicans; C. albicans SC5314 (control), 37° C., 24 h; read-out: Median MIC. The protocol: as §3, §4

The MIC is the smallest concentration in the dilution series that meets the test's criterion for growth inhibition. As usually defined, the melting point is the temperature of the solid-liquid transition.

For the molecule `OO` [Complex H2O2, hydrogen peroxide, reference compound], the live cells worked out at 19.9% with C. albicans 4251 [1] and 26.1% with C. albicans 5112 [2]. Besides, the figures for the “average fluorescence ratio JC-10 aggregates/JC-10 monomers” value in the data set on C. albicans 4251 [3] and in the data set on C. albicans 5112 [4] were 2.5 and 2.75, respectively. Besides, the “impact on the cell cycle” value with C. albicans 4251 [5] was “not much impact”.
As to `OC(Cn1cncn1)(Cn1cncn1)c1ccc(F)cc1F` [Flz, fluconazole, reference compound], the MIC in the data set with C. albicans 4085 was 16 µg/mL (≈ 52.2 µM); in the data set on C. albicans 4106, 32 µg/mL (≈ 104 µM); in the data set with C. albicans 4175, 0.25 µg/mL (≈ 0.816 µM); in the data set with C. albicans 4180 it was 0.25 µg/mL (≈ 0.816 µM); in the data set on C. albicans 4251 [6] it was 0.5 µg/mL (≈ 1.63 µM); with C. albicans 4324, 32 µg/mL (≈ 104 µM). Also, the minimum inhibitory concentration (MIC) in the data set on C. albicans 4554 worked out at 0.25 µg/mL (≈ 0.816 µM); in the data set on C. albicans 5112 [7], 64 µg/mL (≈ 209 µM); with C. albicans SC5314, 0.25 µg/mL (≈ 0.816 µM).
`Oc1ccc(Br)cc1/C=N/c1ccc2c(c1)OCCO2` [L, (E)-4-bromo-2-{[(2,3-dihydrobenzo[b][1,4]dioxin-6-yl)imino]methyl}phenol] had a melting point of 119 °C.
